This note sets out measurements from patent US10357477B2, “Anticancer compounds” (REGENTS OF THE UNIVERSITY OF MINNESOTA, priority 2016, dated 2019).

Series [1] can be described thus: Caco-2 permeability assay. It is filed as in vitro ADME. As to conditions: human, pH 7.4. As for the experimental part:
Cell Culture. The human colon adenocarcinoma cell line Caco-2 was purchased from ATCC (American Type Culture Collection, Manassas, Va.), and was cultured in a humidified atmosphere of 5% CO2 at 37° C. Caco-2 cells were cultured in DMEM with 10% FBS, 1% NEAA, 1% GlutaMax and 1% penicillin and streptomycin solution. The culture medium was changed every other day during cell growth and differentiation. On achieving 80-90% confluence, the cells were rinsed with pre-warm DPBS (pH 7.4) and split using trypsin. The cells were then seeded on membranes of Millipore Millicell-24 cell culture device. The transepithelial electrical resistance (TEER) were assessed to reflect membrane integrity using a Millicells® ERS-2 (Millipore, USA). The Caco-2 cell monolayers were used for transport experiments on day 21 post-seeding with TEER values >500 Ω·cm2. Bidirectional Transport Experiments. Before the transport experiments, the cell monolayer was washed three times with HBSS. Then, the plates were incubated in fresh permeability assay buffer (HBSS containing 10 mM glucose and 20 mM HEPES, pH 7.4) at 37° C. The experiments were conducted by spiking test compounds to either the apical (AP, 0.4 mL) or basolateral side (BL, 0.8 mL), while the receiving chamber contained the corresponding volume of pre-warmed permeability assay buffer. Every experiment was repeated in duplicate, and the plates were incubated in an orbital shaker at 37° C., 50 rpm/min. To assess the drug transport, at the incubation time of 20, 40, 60 and 80 min, aliquot was removed and was immediately replenished with an equal volume of permeability assay buffer. The samples were then subjected to LC/MS/MS analysis. The apparent permeability coefficient was indicated by the absorption rate constant Papp. It could be calculated as PBA (measured in BL to AP direction) or PAB (measured in AP to BL direction), using the equation of Papp=(dQ/dt)/(A×C0). dQ/dt is the rate at which the compound appears in the receiver chamber (nmol/s), A is the surface area of the filter membrane (0.7 cm2) and C0 is the initial concentration in the donor chamber (μM). Efflux ratio (ER) was calculated by the equation of ER=PBA/PAB, where PBA is the Papp value measured in BL to AP direction, and PAB is the Papp value measured in AP to BL direction.
On the technique in general: Caco-2 cells form a polarised layer with tight junctions and transporters.

The nature of series [2]: Microsomal stability assay, mouse liver microsomes. It is filed as in vitro ADME. As to conditions: pH 7.4; mouse liver microsomes 0.5 mg/mL, 1 mM NADPH, 1 μM compound; read-out: Microsomal Stability t1/2 Mouse. In general terms: Microsomes from liver hold many membrane-bound enzymes, among them those of drug oxidation.
Another series concerns Panc-1 cells. Description: Cell viability assay (MTT) in Panc-1 cells. In kind it is cell-based. As to conditions: Homo sapiens, antiproliferative activity, 72 h. As for the experimental part: Panc-1 cells are maintained in RPMI 1640 (Invitrogen 11875) media supplemented with 10% FBS, 1% Penicillin/Streptomycin and 1% Glutamax-1. Cells were plated in 96-well plates at 25×10^4 cells/ml. After 24 hours, compounds were added at 9, 3× dilutions in triplicate from 100 uM final concentration in the appropriate growth media. Plates were incubated for 72 hours at 37° C. in a 5% CO2/95% air humidified atmosphere after which time the media was removed and MTT was added in RPMI phenol red free media. The MTT was removed after 3 hours and formazan crystals were solubilized with 200 μL of isopropanol. Plates were read on a Molecular Devices SpectraMax i3 spectrophotometer at 570 nm for formazan and 690 nm for background subtraction. EC50 values were calculated by fitting the data in GraphPad Prism software.

Series [3] can be described thus: Plasma stability assay, mouse plasma. It is filed as in vitro ADME. Particulars: 37° C.

For orientation: Papp A→B means how fast a substance crosses the layer from the apical side. In general, Papp B→A refers to how fast a substance crosses the layer from the basolateral side. The EC50 is the midpoint of the concentration-response curve. As for `CNC(=O)c1cccc(Cn2nc(C)c(NC(=O)c3ccc(COc4ccc(C(F)(F)F)cc4)cc3)c2C)c1` [Compound D9c, 3-((3,5-Dimethyl-4-(4-((4-(trifluoromethyl)phenoxy)-methyl)benzamido)-1H-pyrazol-1-yl)methyl)-N-methylbenzamide], the apparent permeability from apical to basolateral (Papp A→B) at 80 min in series [1] (apical to basolateral) turned out to be 8.26 ×10⁻⁶ cm/s. In addition, in series [1] (basolateral to apical), the Papp B→A at 80 min was 19.3 ×10⁻⁶ cm/s. Further, in series [2], the half-life at 1 μM amounted to 1 h. In addition, a half-maximal effect in the series on Panc-1 cells (EC50) was put at 210 nM. The “Plasma Stability (% remaining, 6 h/24 h) Mouse” value in series [3] (6 h) stood at 91%; in series [3] (24 h) it was 77%.
